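Exposure lasted 48 hours, with cells grown in 96-well plates and compounds tested at five concentrations. GI50 = concentration required for 50% inhibition of growth.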 The source made the active and inactive calls. No stated cut-off is given here; in the data, active = GI50 up to about 1.1 µM and inactive = higher.
How the values were obtained:
Assay in all cases: DTP human tumour cell line panel, 48 h
[1] = tested on: T47D
[2] = tested on: K562
[3] = tested on: SK-MEL-28
[4] = tested on: PC-3
[5] = tested on: BT-549
[6] = tested on: HOP-62
[7] = tested on: SN12C
[8] = tested on: MDA-MB-231
[9] = tested on: IGROV-1
[10] = tested on: SNB-19
[11] = tested on: MCF7
[12] = tested on: KM12
[13] = tested on: DU-145
[14] = tested on: Hs-578T
[15] = tested on: SK-MEL-2
[16] = tested on: SR

Compound | GI50 [1] | GI50 [2] | GI50 [3] | GI50 [4] | GI50 [5] | GI50 [6] | GI50 [7] | GI50 [8] | GI50 [9] | GI50 [10] | GI50 [11] | GI50 [12] | GI50 [13] | GI50 [14] | GI50 [15] | GI50 [16]
Nc1ccc(S(=O)(=O)c2ccc(NC(=O)c3cccnc3)cc2)cc1 | 36.8 µM (inactive) | 78 µM (inactive) | > 100 µM (inactive) | 75 µM (inactive) | 92 µM (inactive) | > 100 µM (inactive) | > 100 µM (inactive) | > 100 µM (inactive) | > 100 µM (inactive) | > 100 µM (inactive) | > 100 µM (inactive) | > 100 µM (inactive) | > 100 µM (inactive) | 80.9 µM (inactive) | – | –
COc1ccc(-c2c(C#N)c(-c3ccc(C)cc3)n(NS(=O)(=O)c3ccc(C)cc3)c(=O)c2C#N)cc1 | – | 57 µM (inactive) | 61.1 µM (inactive) | 36.6 µM (inactive) | 33.9 µM (inactive) | 39.7 µM (inactive) | 66.2 µM (inactive) | > 100 µM (inactive) | 39.5 µM (inactive) | 47.4 µM (inactive) | 24.5 µM (inactive) | 24.8 µM (inactive) | – | 25.1 µM (inactive) | 58.9 µM (inactive) | –
O=C1CCCN1C(=O)CS(=O)(=O)c1ccccc1 | > 100 µM (inactive) | > 100 µM (inactive) | > 100 µM (inactive) | > 100 µM (inactive) | > 100 µM (inactive) | > 100 µM (inactive) | > 100 µM (inactive) | > 100 µM (inactive) | > 100 µM (inactive) | > 100 µM (inactive) | – | > 100 µM (inactive) | > 100 µM (inactive) | > 100 µM (inactive) | > 100 µM (inactive) | > 100 µM (inactive)
CC(=O)OCC1OC(O[C@@H]2C[C@H]3C(C)(C)[C@@H](OC(C)=O)CC[C@]3(C)[C@H]3CC[C@]45C[C@]4(CC[C@H]5[C@@H](C)C[C@@H](O)[C@H](O)C(C)(C)F)[C@@]32C)C(O)C(O)C1O (stereo partly drawn) | > 100 µM (inactive) | 1.6 µM (inactive) | 1.63 µM (inactive) | 10.6 µM (inactive) | 1.72 µM (inactive) | 50 µM (inactive) | 1.73 µM (inactive) | 25.8 µM (inactive) | 2.06 µM (inactive) | 1.68 µM (inactive) | 12.6 µM (inactive) | 16.2 µM (inactive) | > 100 µM (inactive) | 1.84 µM (inactive) | – | –
S=C(N/N=C(/c1ccccc1)c1ccccn1)N1CCCCCC1 | 0.0843 µM (active) | < 0.0115 µM (active) | – | < 0.0198 µM (active) | 0.564 µM (active) | 0.0514 µM (active) | – | 0.01 µM (active) | < 0.0198 µM (active) | 0.308 µM (active) | 0.0569 µM (active) | < 0.0306 µM (active) | 0.369 µM (active) | 0.3 µM (active) | 0.489 µM (active) | –
NC(=O)CC(N)C(=O)NC(Cc1ccccc1)C(=O)NC(Cc1ccccc1)NC(=O)C(Cc1c[nH]c2ccccc12)C(=O)O (stereo not drawn) | > 100 µM (inactive) | > 100 µM (inactive) | > 100 µM (inactive) | > 100 µM (inactive) | – | > 100 µM (inactive) | > 100 µM (inactive) | > 100 µM (inactive) | > 100 µM (inactive) | > 100 µM (inactive) | > 100 µM (inactive) | > 100 µM (inactive) | > 100 µM (inactive) | > 100 µM (inactive) | > 100 µM (inactive) | –
COc1ccc(CCCNC(=O)Cc2ccccc2CO)cc1OC | > 100 µM (inactive) | > 100 µM (inactive) | > 100 µM (inactive) | > 100 µM (inactive) | > 100 µM (inactive) | > 100 µM (inactive) | > 100 µM (inactive) | > 100 µM (inactive) | > 100 µM (inactive) | > 100 µM (inactive) | – | > 100 µM (inactive) | > 100 µM (inactive) | > 100 µM (inactive) | > 100 µM (inactive) | > 100 µM (inactive)
CC(C)[Si](OC1=C(C(=O)N(C)c2cccc(Cl)c2)CCCC1)(C(C)C)C(C)C | 2.91 µM (inactive) | 4.94 µM (inactive) | 13.6 µM (inactive) | 8.61 µM (inactive) | – | 17.6 µM (inactive) | – | 16 µM (inactive) | 17.2 µM (inactive) | 16.6 µM (inactive) | 12.3 µM (inactive) | 13.5 µM (inactive) | 11.7 µM (inactive) | 12.5 µM (inactive) | 15.5 µM (inactive) | 9.16 µM (inactive)
O=C1CC(c2ccsc2)n2cccc21 (stereo not drawn) | > 100 µM (inactive) | > 100 µM (inactive) | > 100 µM (inactive) | > 100 µM (inactive) | – | > 100 µM (inactive) | > 100 µM (inactive) | > 100 µM (inactive) | > 100 µM (inactive) | > 100 µM (inactive) | > 100 µM (inactive) | > 100 µM (inactive) | > 100 µM (inactive) | > 100 µM (inactive) | > 100 µM (inactive) | > 100 µM (inactive)
C=C(C)CCC1CC=[N+]([O-])OC1C(C)(C)C (stereo not drawn) | 20.7 µM (inactive) | > 100 µM (inactive) | – | – | – | 79.3 µM (inactive) | 49.4 µM (inactive) | 26.8 µM (inactive) | 34.6 µM (inactive) | – | 15.5 µM (inactive) | 28.2 µM (inactive) | 37.4 µM (inactive) | 36.6 µM (inactive) | – | 36.3 µM (inactive)
